Results on 19 sequences are retold here after patent US8324345B2, “HLA-binding peptide, precursor thereof, DNA fragment and recombinant vector encoding the same” (priority 2006, dated 2012).

pKd: −log10 of the molar value. No end group written: not given here.

The target in one assay is HLA-A2 molecule (the product of HLA-A*0201 gene) (Homo sapiens, UniProt P04439, D140Y/D185E/D98H/E176V/E277Q/G131W/G231S/I119V/I121R/I166T/I218V/L300P/L318F/N151K/N90K/P208A/P217A/Q86G/Q94H/R138H/R169H/T345S). The experiment in a line: Binding experiment of the peptides to an HLA-A0201 molecule (JY cells, flow cytometry).
Conditions: not given
On the procedure:
After neutralization, a reassemble experiment was performed.
The above JY cells and purified β 2 m were added to a serial dilution of the peptide whose binding affinity was to be measured. Then, the mixture was incubated on ice for 4 hours.
A word on the pKd: it is the Kd on a negative log10 scale, so that one unit is a factor of ten. Take LLFKTENGV [compound 28]: the pKd is 7.48.
For ILIRTGLLV [compound 33], the negative-log Kd (pKd) was 6.53.
Sequence ELPETLETL [compound 40] had a pKd of 6.32.
Consider IVLEHGSCV [compound 27], for which the pKd was 5.74.
PLNEAIMAV [compound 29] showed a negative logarithm of the Kd (pKd) of 6.49.
SLRPQPTEL [compound 34] showed a pKd of 5.05.
Regarding FQPESPSKL [compound 36], the pKd is 6.31.
In the case of ALHQVFGAI [compound 38], the pKd was 6.77.
On to FLIDGPETA [compound 35], for which the negative logarithm of the Kd (pKd) is 6.05.
For NLVRLQSGV [compound 30], the pKd is 4.70.
For the sequence YMPSVIEKM [compound 39], the negative-log Kd (pKd) is 6.58.

A further assay concerns human HLA-A type molecule. The experiment in a line: Binding experiments, summary statement for HLA-A type molecules. The following applies: summary of the binding experiments. As for the experimental part:
The peptides' binding affinity to an HLA-A24 molecule (the product of HLA-A*2402 gene) was measured by using C1R-A24 cells that express the HLA-A*2402 gene (produced by and provided with permission of Professor Masafumi Takiguchi, Kumamoto University).
For the sequence ALVAFLRFL [SEQ ID NO 21], the “binding affinity to a human HLA-A type molecule (in words)” value was “experimentally confirmed to have binding affinity”.

In a further assay the target is HLA-A2 molecule (the product of HLA-A*0206 gene) (Homo sapiens, UniProt P04439, D140Y/D185E/D98H/E176V/E277Q/F33Y/G131W/G231S/I119V/I121R/I166T/I218V/L300P/L318F/N151K/N90K/P208A/P217A/Q86G/Q94H/R138H/R169H/T345S). Briefly: cell-based.
Conditions: not given
QILEENVEV [compound 50]: the negative-log Kd (pKd) is 5.61.
The same measure, in the same setting: in the case of HVLGRLITV [compound 45] it was 6.25; in that of LVISGLFPV [compound 41], 6.61; in that of SVIEKMEAL [compound 48], 6.37.
Consider IVLEHGSCV [compound 46], for which the negative-log Kd (pKd) was 6.02.
As to YVVIAILTV [compound 47], the pKd is 5.86.
Sequence LALLAAFKV [compound 43] showed a pKd of 6.47.
Sequence ALVAFLRFL [SEQ ID NO 21] showed a negative-log Kd (pKd) of 5.97.
